What was measured:
[1] = system: JAK2; settings: peripheral neuropathy and Wernicke encephalopathy; termination from phase III clinical trials; cited from earlier work
[2] = system: MPN cells; experiment: Colony forming unit (CFU) assay of MPN cells; type: cell-based, mouse; settings: in vitro CFU assay
Procedure: To test this, hematopoietic CFU assays were performed using mouse bone marrow-derived Kit+ cells transduced with retroviruses expressing, pMSCV-Ires-GFP (vector), Jak2-V617F-Ires-GFP, Mpl-W515L-ires-GFP, and CSF3R-T618IIres-GFP.
Given the limitations of in vitro assays, performed in vivo experiments were then performed using bone marrow transduction transplantation assays. For in vivo analysis, mice were transplanted with 80-100 thousand bone marrow Kit^+ cells expressing Jak2-V617F-ires-GFP, CSF3R-T618I-Ires-GFP and MSCV-Ires-GFP (vector control). Mice received […] developed fatal MPD with a disease latency of 4-6 months.

[3] = system: BCR/ABL induced leukemia; experiment: Retroviral bone marrow transduction transplantation CML model; settings: mouse model of CML
Procedure: Kit^+ cells from mouse bone marrow were transduced with BCR/ABL-IRES-YFP retroviruses. Five thousand GFP^+ cells were plated for in vitro CFU assays, and 40,000 YFP^+ cells were transplanted for in vivo leukemia development in lethally irradiated C57Bl6 mice. […] Data shown are from two independent transplant experiments (n p=0.017). Below, Bar graphs illustrating leukemic burden in mice transplanted with BCR-ABL Kit^+ cells, measured by the level of YFP in peripheral blood as a surrogate for BCR/ABL expression.
For in vivo analysis, mice were transplanted with 40 thousand bone marrow Kit^+ cells expressing BCR/ABL and YFP.
To test c-Fos and Dusp1 as potential drug targets, in vitro and in vivo experiments were performed using small molecule inhibitors of c-Fos and Dusp1 (FIG. 5A). […] Representative data shown are the mean colony number from two independent experiments±S.D. (*=p<0.01, **=p<0.002). […] Data shown are from two independent transplant experiments (n=12; p=0.0285).
Next, in vivo efficacy was examined using a retroviral bone marrow transduction transplantation CML model.

[4] = system: K562 cells; experiment: Survival of K562 cells treated with imatinib +/- cytokines; type: cell-based, human
Procedure: (J) Real-time qPCR analysis illustrating expression of c-FOS, DUSP1, and ZFP36 in primary CML patient peripheral blood mononuclear cells normalized to CD34+ cells from normal volunteers (black bar). Four chronic phase (CP) and three blast crisis (BC) patients were analyzed.
BaF3 cells were generated with tetracycline-inducible expression of BCR/ABL (BaF3-LTBA, FIG. 3A), as well as those with constitutive BCR/ABL expression (BAF3-BCR/ABL, FIG. 3B).

For `Cc1cc(Nc2nc(N[C@@H](C)c3ncc(F)cn3)ncc2Cl)n[nH]1` [AZD1480], the neurological toxicity [1] is listed as “profound neurological toxicities”.
For `O=C1/C(=C/c2ccccc2)C(NC2CCCCC2)c2ccccc21` (stereo not drawn) [BCI, (E)-2-benzylidene-3-(cyclohexylamino)-2,3-dihydro-1H-inden-1-one], the “targeting of MPN cells” value [2] was “selective targeting of MPN cells”, the bioavailability [3] was “bioavailable” and the “target inhibition in vivo” value [3] was “inhibits its designated target”.
For `Cc1cnc(Nc2ccc(OCCN3CCCC3)cc2)nc1Nc1cccc(S(=O)(=O)NC(C)(C)C)c1` [fedratinib], the neurological toxicity [1] is listed as “profound neurological toxicities”.
For `Cc1ccc(NC(=O)c2ccc(CN3CCN(C)CC3)cc2)cc1Nc1nccc(-c2cccnc2)n1` [imatinib], the “effect of erythropoietin on imatinib response” value [4] was “erythropoietin conferred imatinib resistance”.

Reference: US10512642B2, “Therapeutic targeting of myeloproliferative neoplasms by DUSP1 inhibition” (Children's Hospital Medical Center, priority 2015, dated 2019)
